From ChEMBL document CHEMBL6153028, “Understanding the synergistic sensitization of natural products and antibiotics: An effective strategy to combat MRSA” (2025)

Experiments:
Format in all cases: functional
Staphylococcus aureus [1] = experiment: Synergistic antibacterial activity against methicillin resistant Staphylococcus aureus assessed as fractional inhibitory concentration index in presence of oxacillin incubated for 24 hrs by checkerboard assay
Staphylococcus aureus [2] = experiment: Synergistic antibacterial activity against methicillin resistant Staphylococcus aureus assessed as fractional inhibitory concentration index in presence of kanamycin incubated for 24 hrs by checkerboard assay
Staphylococcus aureus [3] = experiment: Synergistic antimicrobial activity against methicillin resistant Staphylococcus aureus 43300 assessed as fractional inhibitory concentration index incubated for 24 hrs in presence of Penicillin by checkerboard assay
Staphylococcus aureus [4] = experiment: Synergistic antimicrobial activity against methicillin resistant Staphylococcus aureus 43300 assessed as fractional inhibitory concentration index incubated for 24 hrs in presence of Vancomycin by checkerboard assay
Staphylococcus aureus [5] = experiment: Synergistic antimicrobial activity against methicillin resistant Staphylococcus aureus assessed as fractional inhibitory concentration index incubated for 24 hrs in presence of amikacin by checkerboard assay
Staphylococcus aureus [6] = experiment: Synergistic antimicrobial activity against methicillin-resistant Staphylococcus aureus assessed as fractional inhibitory concentration index in presence of gentamicin by checkerboard assay
Staphylococcus aureus [7] = experiment: Synergistic antibacterial activity against methicillin-resistant Staphylococcus aureus assessed as fractional inhibitory concentration index in presence of cefoxitin
Staphylococcus aureus [8] = experiment: Synergistic antimicrobial activity against methicillin resistant Staphylococcus aureus assessed as fractional inhibitory concentration index incubated for 24 hrs in presence of Oxacillin by checkerboard assay
Staphylococcus aureus [9] = experiment: Synergistic antibacterial activity against methicillin resistant Staphylococcus aureus assessed as fractional inhibitory concentration index in presence of ampicillin
Staphylococcus aureus [10] = experiment: Synergistic antimicrobial activity against methicillin resistant Staphylococcus aureus 43300 assessed as fractional inhibitory concentration index incubated for 24 hrs in presence of norfloxacin by checkerboard assay
Staphylococcus aureus [11] = experiment: Synergistic antimicrobial activity against methicillin-resistant Staphylococcus aureus assessed as fractional inhibitory concentration index in presence of vancomycin by checkerboard assay
Staphylococcus aureus [12] = experiment: Synergistic antibacterial activity against methicillin-resistant Staphylococcus aureus assessed as fractional inhibitory concentration index incubated for 24 hrs in presence of vancomycin by checkerboard assay
Staphylococcus aureus [13] = experiment: Synergistic antimicrobial activity against methicillin resistant Staphylococcus aureus 43300 assessed as fractional inhibitory concentration index incubated for 24 hrs in presence of cefotaxime by checkerboard assay
Staphylococcus aureus [14] = experiment: Synergistic antimicrobial activity against methicillin resistant Staphylococcus aureus 43300 assessed as fractional inhibitory concentration index incubated for 24 hrs in presence of imipenem by checkerboard assay
Staphylococcus aureus [15] = experiment: Synergistic antimicrobial activity against methicillin resistant Staphylococcus aureus 43300 assessed as fractional inhibitory concentration index incubated for 24 hrs in presence of Cefuroxime by checkerboard assay
Staphylococcus aureus [16] = experiment: Synergistic antibacterial activity against methicillin resistant Staphylococcus aureus assessed as fractional inhibitory concentration index in presence of ciprofloxacin
Staphylococcus aureus [17] = experiment: Synergistic antibacterial activity against methicillin-resistant Staphylococcus aureus 4806 assessed as fractional inhibitory concentration index incubated for 24 hrs in presence of ampicillin by checkerboard assay
Staphylococcus aureus [18] = experiment: Synergistic antibacterial activity against methicillin-resistant Staphylococcus aureus assessed as fractional inhibitory concentration index incubated for 24 hrs in presence of ampicillin by checkerboard assay
Staphylococcus aureus [19] = experiment: Synergistic antibacterial activity against Staphylococcus aureus assessed as fractional inhibitory concentration index incubated for 24 hrs in presence of ampicillin by checkerboard assay
Staphylococcus aureus [20] = experiment: Synergistic antimicrobial activity against methicillin resistant Staphylococcus aureus assessed as fractional inhibitory concentration index incubated for 24 hrs in presence of Fosfomycin by checkerboard assay
Staphylococcus aureus [21] = experiment: Synergistic antibacterial activity against methicillin-resistant Staphylococcus aureus assessed as fractional inhibitory concentration index incubated for 24 hrs in presence of cefazolin by checkerboard assay
Staphylococcus aureus [22] = experiment: Synergistic antibacterial activity against methicillin-resistant Staphylococcus aureus assessed as fractional inhibitory concentration index in presence of azithromycin
Staphylococcus aureus [23] = experiment: Synergistic antibacterial activity against methicillin resistant Staphylococcus aureus assessed as fractional inhibitory concentration index incubated for 24 hrs in presence of levofloxacin by broth microdilution checkboard assay
Staphylococcus aureus [24] = experiment: Synergistic antibacterial activity against methicillin-resistant Staphylococcus aureus assessed as fractional inhibitory concentration index incubated for 24 hrs in presence of fusidic acid by checkerboard assay
Staphylococcus aureus [25] = experiment: Synergistic antimicrobial activity against methicillin resistant Staphylococcus aureus assessed as fractional inhibitory concentration index incubated for 24 hrs in presence of Norfloxacin by checkerboard assay
Staphylococcus aureus [26] = experiment: Synergistic antimicrobial activity against methicillin-resistant Staphylococcus aureus CCARM 3089 assessed as fractional inhibitory concentration index in presence of oxacillin incubated for 24 hrs by checkerboard assay
Staphylococcus aureus [27] = experiment: Synergistic antibacterial activity against methicillin resistant Staphylococcus aureus assessed as fractional inhibitory concentration index in presence of norfloxacin; settings: time 24 hrs
Staphylococcus aureus [28] = experiment: Synergistic antimicrobial activity against methicillin-resistant Staphylococcus aureus assessed as fractional inhibitory concentration index in presence of gentamicin incubated for 24 hrs by checkerboard assay
Staphylococcus aureus [29] = experiment: Synergistic antimicrobial activity against methicillin resistant Staphylococcus aureus 43300 assessed as fractional inhibitory concentration index incubated for 24 hrs in presence of Oxacillin by checkerboard assay

SMILES: CC(C)=CCc1c(-c2ccc(O)cc2O)oc2c(CC=C(C)C)c(O)cc(O)c2c1=O [KUWANON C]
- fractional inhibitory concentration index (FICI) (Staphylococcus aureus [1]): 0.5
- fractional inhibitory concentration index (FICI) (Staphylococcus aureus [2]): 0.375

SMILES: C[C@H]1C2CCC3[C@@H]4CC=C5CC(N(C)C)CC[C@]5(C)[C@H]4CC[C@@]32CN1C=O (stereo partly drawn)
- fractional inhibitory concentration index (FICI) (Staphylococcus aureus [3]): 0.116
- fractional inhibitory concentration index (FICI) (Staphylococcus aureus [4]): 0.502

SMILES: CC(C)=CC[C@@H](O)C1=CC(=O)c2c(O)ccc(O)c2C1=O [SHIKONIN]
- fractional inhibitory concentration index (FICI) (Staphylococcus aureus [5]): 0.37
- fractional inhibitory concentration index (FICI) (Staphylococcus aureus [6]): 0.5
- fractional inhibitory concentration index (FICI) (Staphylococcus aureus [7]): 0.57

SMILES: C[C@H]1[C@H](C)CC[C@]2(C(=O)O)CC[C@]3(C)C(=CC[C@@H]4[C@@]5(C)CC[C@H](O)C(C)(C)[C@@H]5CC[C@]43C)[C@H]12 [URSOLIC ACID]
- fractional inhibitory concentration index (FICI) (Staphylococcus aureus [8]): <0.5
- fractional inhibitory concentration index (FICI) (Staphylococcus aureus [9]): <0.5

SMILES: COc1cc2c(cc1O)CC[n+]1cc3c(OC)c(OC)ccc3cc1-2.[I-]
- fractional inhibitory concentration index (FICI) (Staphylococcus aureus [10]): 0.375

SMILES: C=C(C)[C@@H]1CC[C@]2(C=O)CC[C@]3(C)[C@H](CC[C@@H]4[C@@]5(C)CC[C@H](O)C(C)(C)[C@@H]5CC[C@]43C)[C@@H]12 [BETULINALDEHYDE]
- fractional inhibitory concentration index (FICI) (Staphylococcus aureus [11]): 0.5

SMILES: O=C/C=C/c1ccccc1 [CINNAMALDEHYDE]
- fractional inhibitory concentration index (FICI) (Staphylococcus aureus [8]): 0.25
- fractional inhibitory concentration index (FICI) (Staphylococcus aureus [5]): 0.19
- fractional inhibitory concentration index (FICI) (Staphylococcus aureus [6]): 0.37
- fractional inhibitory concentration index (FICI) (Staphylococcus aureus [12]): 0.25

SMILES: C[C@@H]1O[C@@H](O[C@H]2[C@H](O[C@H]3CC[C@]4(C)[C@H]5CC=C6[C@@H]7CC(C)(C)CC[C@]7(C(=O)O)CC[C@@]6(C)[C@]5(C)CC[C@H]4C3(C)C)OC[C@H](O)[C@@H]2O)[C@H](O)[C@H](O)[C@H]1O
- fractional inhibitory concentration index (FICI) (Staphylococcus aureus [8]): 0.28

SMILES: O=C1C=CC(=O)c2ccccc21 [NAPHTHOQUINONE]
- fractional inhibitory concentration index (FICI) (Staphylococcus aureus [13]): 0.062
- fractional inhibitory concentration index (FICI) (Staphylococcus aureus [14]): 0.5
- fractional inhibitory concentration index (FICI) (Staphylococcus aureus [15]): 0.06

SMILES: Oc1cc(O)cc(/C=C/c2ccc(O)cc2O)c1 [OXYRESVERATROL]
- fractional inhibitory concentration index (FICI) (Staphylococcus aureus [16]): 0.37
- fractional inhibitory concentration index (FICI) (Staphylococcus aureus [12]): 0.37

SMILES: COc1c(O)ccc2c1C(CC(C)=O)N(C)c1c-2ccc2cc3c(cc12)OCO3 (stereo not drawn)
- fractional inhibitory concentration index (FICI) (Staphylococcus aureus [17]): 0.375
- fractional inhibitory concentration index (FICI) (Staphylococcus aureus [18]): 0.5
- fractional inhibitory concentration index (FICI) (Staphylococcus aureus [19]): 0.5

SMILES: O=C(O)c1cc(O)c2c(c1)C(=O)c1cccc(O)c1C2=O [RHEIN]
- fractional inhibitory concentration index (FICI) (Staphylococcus aureus [8]): 0.37

SMILES: C=CCc1ccc(O)c(-c2ccc(O)c(CC=C)c2)c1 [HONOKIOL]
- fractional inhibitory concentration index (FICI) (Staphylococcus aureus [20]): <0.5
- fractional inhibitory concentration index (FICI) (Staphylococcus aureus [5]): <0.5

SMILES: CC(C)=CCc1c(O)ccc(-c2oc3cc(O)cc(O)c3c(=O)c2CC=C(C)C)c1O
- fractional inhibitory concentration index (FICI) (Staphylococcus aureus [1]): 0.375
- fractional inhibitory concentration index (FICI) (Staphylococcus aureus [2]): 0.5

SMILES: COc1ccc2cc1Oc1ccc(cc1)C[C@H]1c3cc(c(OC)cc3CCN1C)Oc1c(O)c(OC)cc3c1[C@H]2N(C)CC3
- fractional inhibitory concentration index (FICI) (Staphylococcus aureus [21]): 0.25

SMILES: COc1ccc2c(c1OC)C(CC(C)=O)N(C)c1c-2ccc2cc3c(cc12)OCO3 (stereo not drawn)
- fractional inhibitory concentration index (FICI) (Staphylococcus aureus [19]): 0.5

SMILES: COc1ccc2cc3[n+](cc2c1OC)CCc1cc2c(cc1-3)OCO2.[Cl-] [BERBERINE CHLORIDE]
- fractional inhibitory concentration index (FICI) (Staphylococcus aureus [22]): 0.188
- fractional inhibitory concentration index (FICI) (Staphylococcus aureus [23]): 0.375
- fractional inhibitory concentration index (FICI) (Staphylococcus aureus [24]): 0.19

SMILES: C[C@H]1[C@H](OC(=O)CCC(=O)O)O[C@@H]2O[C@@]3(C)CC[C@H]4[C@H](C)CC[C@@H]1[C@@]24OO3 [ARTESUNATE]
- fractional inhibitory concentration index (FICI) (Staphylococcus aureus [8]): <0.5

SMILES: C=CCc1ccc(O)c(-c2cc(CC=C)ccc2O)c1 [MAGNOLOL]
- fractional inhibitory concentration index (FICI) (Staphylococcus aureus [20]): <0.5

SMILES: CC1=C(C)[C@H]2C3=CC[C@@H]4[C@@]5(C)CC[C@H](O)C(C)(C)[C@@H]5CC[C@@]4(C)[C@]3(C)CC[C@@]2(C(=O)O)CC1
- fractional inhibitory concentration index (FICI) (Staphylococcus aureus [19]): 0.5
- fractional inhibitory concentration index (FICI) (Staphylococcus aureus [8]): 0.38

SMILES: C=C(C)[C@@H]1CC[C@]2(C(=O)O)CC[C@]3(C)[C@H](CC[C@@H]4[C@@]5(C)CC[C@H](O)C(C)(C)[C@@H]5CC[C@]43C)[C@@H]12 [BETULINIC ACID]
- fractional inhibitory concentration index (FICI) (Staphylococcus aureus [11]): 0.5

SMILES: O=C(OCC1O[C@H](OC(=O)c2cc(O)c(O)c(O)c2)[C@@H](O)[C@H](OC(=O)c2cc(O)c(O)c(O)c2)[C@H]1O)c1cc(O)c(O)c(O)c1 (stereo partly drawn)
- fractional inhibitory concentration index (FICI) (Staphylococcus aureus [25]): 0.31
- fractional inhibitory concentration index (FICI) (Staphylococcus aureus [8]): <0.5

SMILES: CC1(C)CC[C@]2(C(=O)O)CC[C@]3(C)C(=CC[C@@H]4[C@@]5(C)CC[C@H](O)C(C)(C)[C@@H]5CC[C@]43C)[C@@H]2C1 [OLEANOLIC_ACID]
- fractional inhibitory concentration index (FICI) (Staphylococcus aureus [8]): <0.5
- fractional inhibitory concentration index (FICI) (Staphylococcus aureus [9]): <0.5

SMILES: O=C(O[C@@H]1O[C@@H]2COC(=O)c3cc(O)c(O)c(O)c3-c3c(cc(O)c(O)c3O)C(=O)O[C@H]2[C@H](OC(=O)c2cc(O)c(O)c(O)c2)[C@H]1OC(=O)c1cc(O)c(O)c(O)c1)c1cc(O)c(O)c(O)c1 [EUGENIIN]
- fractional inhibitory concentration index (FICI) (Staphylococcus aureus [26]): 0.395

SMILES: O=c1c(-c2ccc(O)cc2)coc2cc(O)cc(O)c12 [GENISTEIN]
- fractional inhibitory concentration index (FICI) (Staphylococcus aureus [27]): 0.38

SMILES: CC1=CCC[C@@H]2[C@@](C)(C[C@H](O)C3=CC(=O)OC3O)[C@H](C)CC[C@@]12C (stereo partly drawn)
- fractional inhibitory concentration index (FICI) (Staphylococcus aureus [8]): 0.125

SMILES: CC(C)=CCc1c(-c2ccc(O)cc2O)oc2c3c(cc(O)c2c1=O)OC(C)(C)C=C3 [MORUSIN]
- fractional inhibitory concentration index (FICI) (Staphylococcus aureus [1]): 0.375
- fractional inhibitory concentration index (FICI) (Staphylococcus aureus [2]): 0.5

SMILES: C[C@H]1COC2=C1C(=O)C(=O)c1c2ccc2c1CCCC2(C)C [CRYPTOTANSHINONE]
- fractional inhibitory concentration index (FICI) (Staphylococcus aureus [8]): 0.312
- fractional inhibitory concentration index (FICI) (Staphylococcus aureus [12]): 0.37

SMILES: CNC1CC[C@@]2(C)C(=CC[C@H]3C4CCC5[C@H](C)NC[C@@]54CC[C@@H]32)C1 (stereo partly drawn)
- FIC (Staphylococcus aureus [3]): 0.116
- fractional inhibitory concentration index (FICI) (Staphylococcus aureus [4]): 0.116

SMILES: CC(C)c1cc2c(c(O)c1O)[C@@]1(C(=O)O)CCCC(C)(C)[C@@H]1CC2 [CARNOSIC ACID]
- fractional inhibitory concentration index (FICI) (Staphylococcus aureus [28]): 0.5

SMILES: CC(C)=CCC/C(C)=C/Cc1cc(C2CC(=O)c3c(O)cc(O)cc3O2)c(O)cc1O (stereo not drawn) [KUWANON E]
- fractional inhibitory concentration index (FICI) (Staphylococcus aureus [2]): 0.5

SMILES: COc1cc(C)c2c(c1C)OC(=O)c1c(C)c(Cl)c(O)c(C=O)c1O2
- fractional inhibitory concentration index (FICI) (Staphylococcus aureus [8]): 0.312
- fractional inhibitory concentration index (FICI) (Staphylococcus aureus [6]): 0.25

SMILES: COc1ccc2c(c[n+](C)c3c4cc5c(cc4ccc23)OCO5)c1OC.[Cl-] [CHELERYTHRINE CHLORIDE]
- fractional inhibitory concentration index (FICI) (Staphylococcus aureus [29]): 0.5

SMILES: COc1ccc2cc1Oc1ccc(cc1)C[C@H]1c3cc(c(OC)cc3CCN1C)Oc1c(OC)c(OC)cc3c1[C@H]2N(C)CC3
- fractional inhibitory concentration index (FICI) (Staphylococcus aureus [21]): 0.188
